# Values quoted from earlier work in patent US11066384B2, “Crystalline forms of ARN-509, preparation method and use thereof” (Crystal Pharmaceutical (Suzhou) Co., Ltd., priority 2018, dated 2021).
# Like-named read-outs stand apart in the source and are kept apart here.
# Conditions: cited from earlier work
smiles,measurement,setting,value
"CNC(=O)c1ccc(N2C(=S)N(c3cnc(C#N)c(C(F)(F)F)c3)C(=O)C23CCC3)cc1F [Form H, 4-[7-(6-cyano-5-trifluoromethylpyridin-3-yl)-8-oxo-6-thioxo-5,7-diazaspiro[3.4]oct-5-yl]-2-fluoro-N-methylbenzamide]",Crystal form transformation,high temperature and high humidity conditions,easily transformed into form B
"CNC(=O)c1ccc(N2C(=S)N(c3cnc(C#N)c(C(F)(F)F)c3)C(=O)C23CCC3)cc1F [Form I, 4-[7-(6-cyano-5-trifluoromethylpyridin-3-yl)-8-oxo-6-thioxo-5,7-diazaspiro[3.4]oct-5-yl]-2-fluoro-N-methylbenzamide]",Crystal form transformation,high humidity conditions,transform to form B
"CNC(=O)c1ccc(N2C(=S)N(c3cnc(C#N)c(C(F)(F)F)c3)C(=O)C23CCC3)cc1F [Form F, 4-[7-(6-cyano-5-trifluoromethylpyridin-3-yl)-8-oxo-6-thioxo-5,7-diazaspiro[3.4]oct-5-yl]-2-fluoro-N-methylbenzamide]",Crystal form transformation,ambient conditions,transform to form A
